Molecular target: Voltage-dependent L-type calcium channel subunit alpha-1C (Rattus norvegicus, UniProt P22002)
Experiment: Inhibition of [3H](+)-PN200-110 binding to L-type calcium channel 1,4-DHP binding site of rat ventricular myocytes
Type: cell-based, Ventricular myocyte

Sequence of Voltage-dependent L-type calcium channel subunit alpha-1C (P22002 whole entry): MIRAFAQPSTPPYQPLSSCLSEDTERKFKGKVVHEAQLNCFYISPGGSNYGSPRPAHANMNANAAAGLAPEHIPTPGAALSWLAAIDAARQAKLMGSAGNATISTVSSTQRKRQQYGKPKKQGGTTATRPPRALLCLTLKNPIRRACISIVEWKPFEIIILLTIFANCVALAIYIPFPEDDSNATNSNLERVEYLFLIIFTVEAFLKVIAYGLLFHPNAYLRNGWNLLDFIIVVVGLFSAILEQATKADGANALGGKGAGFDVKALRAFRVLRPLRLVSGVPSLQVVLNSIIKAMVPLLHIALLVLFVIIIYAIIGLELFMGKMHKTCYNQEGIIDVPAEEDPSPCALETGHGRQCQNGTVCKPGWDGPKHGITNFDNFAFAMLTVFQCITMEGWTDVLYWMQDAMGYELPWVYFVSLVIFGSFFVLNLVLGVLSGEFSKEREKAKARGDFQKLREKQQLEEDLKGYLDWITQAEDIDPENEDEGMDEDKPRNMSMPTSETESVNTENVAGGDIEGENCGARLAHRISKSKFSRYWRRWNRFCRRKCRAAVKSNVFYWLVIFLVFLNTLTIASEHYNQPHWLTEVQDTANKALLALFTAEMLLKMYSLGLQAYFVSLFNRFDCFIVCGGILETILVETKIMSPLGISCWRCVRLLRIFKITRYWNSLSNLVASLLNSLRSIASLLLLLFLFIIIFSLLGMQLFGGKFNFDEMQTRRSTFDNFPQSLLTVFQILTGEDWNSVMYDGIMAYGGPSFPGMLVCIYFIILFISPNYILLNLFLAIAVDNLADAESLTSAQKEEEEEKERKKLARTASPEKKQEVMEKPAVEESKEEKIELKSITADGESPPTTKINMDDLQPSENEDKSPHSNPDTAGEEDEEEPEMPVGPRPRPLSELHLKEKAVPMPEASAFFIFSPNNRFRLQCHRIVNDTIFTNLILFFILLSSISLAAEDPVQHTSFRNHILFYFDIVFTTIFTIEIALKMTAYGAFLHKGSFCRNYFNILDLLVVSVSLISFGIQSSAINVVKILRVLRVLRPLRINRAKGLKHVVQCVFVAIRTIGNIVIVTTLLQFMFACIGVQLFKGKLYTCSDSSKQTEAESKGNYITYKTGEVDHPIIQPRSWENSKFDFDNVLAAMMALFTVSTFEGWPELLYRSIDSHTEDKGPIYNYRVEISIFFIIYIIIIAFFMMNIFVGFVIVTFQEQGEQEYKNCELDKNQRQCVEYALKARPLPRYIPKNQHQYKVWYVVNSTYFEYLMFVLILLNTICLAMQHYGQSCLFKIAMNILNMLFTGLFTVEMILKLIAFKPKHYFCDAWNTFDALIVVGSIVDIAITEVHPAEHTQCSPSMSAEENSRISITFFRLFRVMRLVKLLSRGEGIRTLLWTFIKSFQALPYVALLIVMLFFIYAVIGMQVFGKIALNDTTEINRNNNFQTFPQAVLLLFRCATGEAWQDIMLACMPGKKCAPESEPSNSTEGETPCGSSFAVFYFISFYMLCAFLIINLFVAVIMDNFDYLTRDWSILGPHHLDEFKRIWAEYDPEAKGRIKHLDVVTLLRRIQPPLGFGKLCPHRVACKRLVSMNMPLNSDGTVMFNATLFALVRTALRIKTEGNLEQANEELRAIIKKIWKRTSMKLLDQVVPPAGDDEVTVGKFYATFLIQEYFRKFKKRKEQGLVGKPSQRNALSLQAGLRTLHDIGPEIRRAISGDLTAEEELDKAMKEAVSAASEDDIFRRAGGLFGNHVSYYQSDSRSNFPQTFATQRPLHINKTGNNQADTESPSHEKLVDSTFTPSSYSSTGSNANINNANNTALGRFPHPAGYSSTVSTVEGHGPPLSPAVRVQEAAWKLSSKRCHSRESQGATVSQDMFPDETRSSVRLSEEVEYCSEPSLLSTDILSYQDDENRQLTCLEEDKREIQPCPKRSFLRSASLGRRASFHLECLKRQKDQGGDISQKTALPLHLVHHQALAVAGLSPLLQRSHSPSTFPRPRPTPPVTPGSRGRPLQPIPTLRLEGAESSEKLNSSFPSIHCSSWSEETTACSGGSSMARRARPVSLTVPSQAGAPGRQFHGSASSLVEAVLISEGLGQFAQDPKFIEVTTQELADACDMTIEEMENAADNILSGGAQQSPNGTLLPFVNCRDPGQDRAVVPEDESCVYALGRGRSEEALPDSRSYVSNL

Row | Ki | SMILES
1 | 33.2 nM | COC(=O)C1=C(C)NC(C)=C(C(=O)OCC[N+](C)(C)C)C1c1ccccc1C(F)(F)F (configuration not stated)
2 | 15.7 nM | CCCCCCCCCCCCCCOC(=O)C1=C(C)NC(C)=C(C(=O)OC)C1c1ccccc1C(F)(F)F (configuration not stated)

Source: ChEMBL document CHEMBL1126913, “A homologous series of permanently charged 1,4-dihydropyridines: novel probes designed to localize drug binding sites on ion channels” (J Med Chem, 1993)
